Values after ≈ are worked out from the molar mass of the structure shown. “Also recorded” adds a separate entry of the source. Peptide text beside a SMILES is read from it.
Assays:
A. baumannii ATCC 19606 [1] = assay: Skin abscess infection mouse model; type: in vivo, CD-1 mice; settings: for bacterial count, skin abscess (Panel 6b): CD-1 mice; for Anti-infective activity in skin abscess model, in words: single dose at MIC, compared with untreated control and polymyxin B, n = 6
Procedure: A. baumannii ATCC 19606 cells were grown in LB medium to an OD600 = 0.5. Cells were washed twice with sterile phosphate-buffered saline (PBS) (pH 7.4, 13,000 r.p.m. for 2 min) and resuspended to a final concentration of 10^6 (A. baumannii cells) colony-forming units per millilitre (c.f.u. ml^−1). Six-week-old female CD-1 mice from Charles River (stock number 18679700-022) were anaesthetized with isoflurane, and their backs were sterilized and shaved. A superficial linear skin abrasion was made with a needle to damage the stratum corneum and upper layer of the epidermis. An aliquot of 20 μl containing the bacterial load resuspended in PBS was inoculated over the scratched area. Two hours after the infection, peptides diluted in water at their MIC value were administered to the infected area, and the untreated mice were inoculated with the same volume of deionized water. Mice were euthanized, and the area of scarified skin was excised 2 days and 4 days post infection, homogenized using a bead beater for 20 min (25 Hz) and then serially diluted tenfold for quantification of colony-forming units. This quantitative method was used as it has been established to accurately reflect the number of bacteria present in a given infected area. MacConkey agar plates were used as A. baumannii colonies appear purple in this medium and can easily be distinguished from other strains. The experiments were performed with six mice per group. All experiments were performed blindly, and no animal subjects were excluded from the analysis. The skin abscess infection mouse model was approved by the University Laboratory Animal Resources from the University of Pennsylvania (protocol 806763). Statistical significance was determined using one-way analysis of variance (ANOVA) followed by Dunnett’s test in log10-transformed data to mitigate the effect of outliers; P values are presented for each group, with all groups being compared to the untreated control group.

A. baumannii ATCC 19606 [2] = assay: Neutropenic thigh infection mouse model; type: in vivo, CD-1 mice; settings: neutropenic CD-1 mice
Procedure: Six-week-old female CD-1 mice from Charles River (stock number 18679700-022) were rendered neutropenic by two doses of cyclophosphamide (150 mg kg^−1) applied intraperitoneally with an interval of 72 h. One day after the last dose of cyclophosphamide, the mice were injected intramuscularly in their right thigh with a bacterial load of 10^6 c.f.u. ml^−1 of A. baumannii ATCC 19606 cells. The bacteria had been grown in LB broth, washed twice with PBS (pH 7.4), and resuspended to the desired concentration. Two hours after bacterial injection, peptides resuspended in water were administered intraperitoneally, and the untreated mice were inoculated with the same volume of deionized water. Before each injection, mice were anaesthetized with isoflurane and monitored for respiratory rate and pedal reflexes. Next, we monitored the establishment of the infection and euthanized the mice. The infected area was excised 2 days and 4 days post infection, homogenized using a bead beater for 20 min (25 Hz), and then serially diluted tenfold for quantification of colony-forming units in MacConkey agar plates. The experiments were performed with six mice per group. All experiments were performed blindly, and no animal subjects were excluded from the analysis. The thigh infection mouse model was approved by the University Laboratory Animal Resources from the University of Pennsylvania (protocol 807055). Statistical significance was determined using one-way ANOVA followed by Dunnett’s test in log10-transformed data to mitigate the effect of outliers; P values are presented for each group, with all groups being compared to the untreated control group.

[3] = system: 11 clinically relevant bacterial pathogens; type: cell-based; settings: for Active or Inactive: Supplementary Dataset 2, against the 11 pathogens tested; for MIC (lowest MIC value in the antimicrobial activity assays): Supplementary Table 17, lowest MIC among the strains tested
Method in brief: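 Log-phase cells (OD600 0.3–0.5), 37 °C; peptides 1–64 μmol l^−1 in broth microdilution; OD600 read-out; n = 3 biological replicates.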

[4] = A. baumannii ATCC 19606, day 2, replicate 1
[5] = A. baumannii ATCC 19606, day 2, replicate 2
[6] = A. baumannii ATCC 19606, day 2, replicate 3
[7] = A. baumannii ATCC 19606, day 2, replicate 4
[8] = A. baumannii ATCC 19606, day 2, replicate 5
[9] = A. baumannii ATCC 19606, day 2, replicate 6
[10] = A. baumannii ATCC 19606, day 4, replicate 1
[11] = A. baumannii ATCC 19606, day 4, replicate 2
[12] = A. baumannii ATCC 19606, day 4, replicate 3
[13] = A. baumannii ATCC 19606, day 4, replicate 4
[14] = A. baumannii ATCC 19606, day 4, replicate 5
[15] = A. baumannii ATCC 19606, day 4, replicate 6

SMILES	bacterial count, skin abscess (Panel 6b) (A. baumannii ATCC 19606 [1]; [4])	bacterial count, skin abscess (Panel 6b) (A. baumannii ATCC 19606 [1]; [5])	bacterial count, skin abscess (Panel 6b) (A. baumannii ATCC 19606 [1]; [6])	bacterial count, skin abscess (Panel 6b) (A. baumannii ATCC 19606 [1]; [7])	bacterial count, skin abscess (Panel 6b) (A. baumannii ATCC 19606 [1]; [8])	bacterial count, skin abscess (Panel 6b) (A. baumannii ATCC 19606 [1]; [9])	bacterial count, skin abscess (Panel 6b) (A. baumannii ATCC 19606 [1]; [10])	bacterial count, skin abscess (Panel 6b) (A. baumannii ATCC 19606 [1]; [11])	bacterial count, skin abscess (Panel 6b) (A. baumannii ATCC 19606 [1]; [12])	bacterial count, skin abscess (Panel 6b) (A. baumannii ATCC 19606 [1]; [13])	bacterial count, skin abscess (Panel 6b) (A. baumannii ATCC 19606 [1]; [14])	bacterial count, skin abscess (Panel 6b) (A. baumannii ATCC 19606 [1]; [15])	Anti-infective activity in skin abscess model, in words (A. baumannii ATCC 19606 [1])	bacterial count, thigh infection (Panel 6d) (A. baumannii ATCC 19606 [2]; [4])	bacterial count, thigh infection (Panel 6d) (A. baumannii ATCC 19606 [2]; [5])	bacterial count, thigh infection (Panel 6d) (A. baumannii ATCC 19606 [2]; [6])	bacterial count, thigh infection (Panel 6d) (A. baumannii ATCC 19606 [2]; [7])	bacterial count, thigh infection (Panel 6d) (A. baumannii ATCC 19606 [2]; [8])	bacterial count, thigh infection (Panel 6d) (A. baumannii ATCC 19606 [2]; [9])	bacterial count, thigh infection (Panel 6d) (A. baumannii ATCC 19606 [2]; [10])	other results
CC[C@H](C)[C@H](NC(=O)[C@@H](N)CC(C)C)C(=O)N[C@H](C(=O)N[C@@H](CS)C(=O)N[C@@H](Cc1ccccc1)C(=O)N[C@@H](Cc1ccccc1)C(=O)N[C@@H](CCCNC(=N)N)C(=O)N[C@@H](CCC(N)=O)C(=O)N[C@@H](CC(C)C)C(=O)N[C@@H](CCCCN)C(=O)N[C@@H](Cc1ccccc1)C(=O)N[C@@H](Cc1c[nH]cn1)C(=O)N[C@@H](Cc1ccccc1)C(=O)O)C(C)C [Megalocerin-1] (H-LIVCFFRQLKFHF-OH; N-terminus and C-terminus assumed)	800000	2000000	2000000	800000	600000	1000000	1200000	1000000	400000	400000	1000000	400000	inhibited the proliferation of the infection for up to 4 days after treatment	1.2e+008	2.0e+007	2.2e+008	2.0e+008	1.2e+008	2.8e+008	6.0e+008	bacterial count, thigh infection (Panel 6d) (A. baumannii ATCC 19606 [2]; [11]): 1.0e+009; bacterial count, thigh infection (Panel 6d) (A. baumannii ATCC 19606 [2]; [12]): 4.0e+007; bacterial count, thigh infection (Panel 6d) (A. baumannii ATCC 19606 [2]; [13]): 6.0e+007; bacterial count, thigh infection (Panel 6d) (A. baumannii ATCC 19606 [2]; [14]): 4.0e+007; bacterial count, thigh infection (Panel 6d) (A. baumannii ATCC 19606 [2]; [15]): 2.0e+007; Active or Inactive [3]: Active; MIC (lowest MIC value in the antimicrobial activity assays) [3]: 8 µM (≈ 13.6 µg/mL)
CC[C@H](C)[C@H](NC(=O)[C@H](CO)NC(=O)[C@H](CCCNC(=N)N)NC(=O)[C@H](C)NC(=O)[C@H](Cc1c[nH]cn1)NC(=O)[C@H](CC(C)C)NC(=O)[C@H](CS)NC(=O)[C@H](C)NC(=O)[C@@H](N)CCCNC(=N)N)C(=O)N[C@@H](C)C(=O)N[C@@H](CCCNC(=N)N)C(=O)N[C@@H](CC(C)C)C(=O)N[C@@H](Cc1c[nH]cn1)C(=O)N[C@@H](CCCCN)C(=O)N[C@@H](CCCNC(=N)N)C(=O)N[C@@H](Cc1c[nH]c2ccccc12)C(=O)N[C@@H](CCCNC(=N)N)C(=O)N1CCC[C@H]1C(=O)N[C@H](C(=O)N[C@@H](Cc1c[nH]cn1)C(=O)N[C@@H](CCC(N)=O)C(=O)NCC(=O)N[C@@H](CC(C)C)C(=O)NCC(=O)N[C@@H](CC(C)C)C(=O)N[C@@H](CCCCN)C(=O)O)C(C)C [Mammuthusin-2] (H-RACLHARSIARLHKRWRPVHQGLGLK-OH; N-terminus and C-terminus assumed)	600000	400000	800000	200000	4000000	1e+007	200000	200000	800000	1200000	20000	20000	inhibited the proliferation of the infection for up to 4 days after treatment	800000	2e+007	4000000	2000000	1e+007	4000000	800000	bacterial count, thigh infection (Panel 6d) (A. baumannii ATCC 19606 [2]; [11]): 600000; bacterial count, thigh infection (Panel 6d) (A. baumannii ATCC 19606 [2]; [12]): 6000000; bacterial count, thigh infection (Panel 6d) (A. baumannii ATCC 19606 [2]; [13]): 6000000; bacterial count, thigh infection (Panel 6d) (A. baumannii ATCC 19606 [2]; [14]): 2000000; bacterial count, thigh infection (Panel 6d) (A. baumannii ATCC 19606 [2]; [15]): 4000000; Active or Inactive [3]: Active; MIC (lowest MIC value in the antimicrobial activity assays) [3]: 32 µM (≈ 97.9 µg/mL)
CC[C@H](C)[C@H](N)C(=O)N[C@@H](Cc1ccccc1)C(=O)N[C@@H](CC(C)C)C(=O)N[C@@H](Cc1c[nH]cn1)C(=O)N[C@@H](CC(C)C)C(=O)N[C@@H](CCCCN)C(=O)N[C@H](C(=O)N[C@@H](CC(C)C)C(=O)N[C@@H](CCCCN)C(=O)N[C@H](C(=O)N[C@H](C(=O)N[C@@H](CCCNC(=N)N)C(=O)N[C@@H](CC(C)C)C(=O)N[C@@H](CC(C)C)C(=O)O)[C@@H](C)CC)[C@@H](C)CC)[C@@H](C)CC [Elephasin-2] (H-IFLHLKILKIIRLL-OH; N-terminus and C-terminus assumed)	200000	200000	8000000	4000000	200000	400000	40000	20000	800000	800000	200	200	comparable to that of the widely used antibiotic polymyxin B; also recorded: inhibited the proliferation of the infection for up to 4 days after treatment; also recorded: cleared the infection in some of the mice	2e+007	4e+007	4e+007	4e+007	8e+007	1e+008	1400000	bacterial count, thigh infection (Panel 6d) (A. baumannii ATCC 19606 [2]; [11]): 1000000; bacterial count, thigh infection (Panel 6d) (A. baumannii ATCC 19606 [2]; [12]): 4000000; bacterial count, thigh infection (Panel 6d) (A. baumannii ATCC 19606 [2]; [13]): 1000000; bacterial count, thigh infection (Panel 6d) (A. baumannii ATCC 19606 [2]; [14]): 800000; bacterial count, thigh infection (Panel 6d) (A. baumannii ATCC 19606 [2]; [15]): 4000000; Active or Inactive [3]: Active; MIC (lowest MIC value in the antimicrobial activity assays) [3]: 1 µM (≈ 1.73 µg/mL)

Source: article PMC11310081, “Deep-learning-enabled antibiotic discovery through molecular de-extinction” (Nature Biomedical Engineering, 2024)
